According to patent US7964629B2, “Inhibitors of isoprenylcysteine carboxyl methyltransferase” (Duke Universtiy, priority 2005, dated 2011):

These molecules were tested against T1, recombinant human Icmt (Homo sapiens, UniProt O60725) (assay: Icmt assay: [3H]methyl incorporation from [3H]AdoMet into BFC). Details: not given.
T1 construct: recombinant baculovirus containing the entire open reading frame of the human Icmt cDNA; made in house; host or cells: Sf9 insect cells (baculovirus); membrane fraction used
T1 sequence (O60725 whole entry): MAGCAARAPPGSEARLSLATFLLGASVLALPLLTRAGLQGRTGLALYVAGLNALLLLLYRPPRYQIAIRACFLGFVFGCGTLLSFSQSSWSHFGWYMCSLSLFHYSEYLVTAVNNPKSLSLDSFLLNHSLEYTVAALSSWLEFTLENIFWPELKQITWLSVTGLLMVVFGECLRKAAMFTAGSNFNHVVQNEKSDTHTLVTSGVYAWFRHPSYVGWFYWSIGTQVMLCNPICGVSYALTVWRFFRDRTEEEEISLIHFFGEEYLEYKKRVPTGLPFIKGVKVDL
Format: biochemical

Molecule	IC50 [µM]
CCOc1cccc(-c2ccc3c(c2)c(CC=O)cn3Cc2cccc(C(F)(F)F)c2)c1 [9F10/A119038]	6

Same assay, conditions: Table 1, R1 substituent x scaffold matrix; read-out: IC50

Molecule	IC50 [µM]
CC(C)Cn1cc(CC(N)=O)c2cc(-c3cccc(F)c3)ccc21 [(a1)/drawing 3]	13.7 ± 0.3

Same assay, conditions: Table 2, no pre-incubation; read-out: IC50

Molecule	IC50 [µM]
CC(C)(C)c1ccc(Cn2cc(CC=O)c3cc(-c4cc(C(F)(F)F)cc(C(F)(F)F)c4)ccc32)cc1 [9B4/A119024]	4
CCOc1cccc(-c2ccc3c(c2)c(CC=O)cn3Cc2ccc(C(C)(C)C)cc2)c1 [9B6/A119030]	3
O=CCc1cn(Cc2ccccc2)c2ccc(-c3ccc(Oc4ccccc4)cc3)cc12 [9B8/A119007]	7
CC(C)(C)c1ccc(Cn2cc(CC=O)c3cc(-c4cccc(F)c4)ccc32)cc1 [9B12/A119029]	4
O=CCc1cn(CCCOc2ccccc2)c2ccc(-c3ccc(Oc4ccccc4)cc3)cc12 [9B20/A119055]	14
CC(C)Cn1cc(CC=O)c2cc(-c3cc(C(F)(F)F)cc(C(F)(F)F)c3)ccc21 [9B22/A119064]	8
O=CCc1cn(CCCOc2ccccc2)c2ccc(-c3cc(C(F)(F)F)cc(C(F)(F)F)c3)cc12 [9D10/A119048]	> 30
O=CCc1cn(Cc2cccc(C(F)(F)F)c2)c2ccc(-c3ccc(Oc4ccccc4)cc3)cc12 [9D12/A119039]	7
CCCCCCCCn1cc(CC=O)c2cc(-c3ccc(Oc4ccccc4)cc3)ccc21 [9D18/A119047]	5
CCCCCCn1cc(CC=O)c2cc(-c3ccc(Oc4ccccc4)cc3)ccc21 [9D20/A110023]	20
COc1ccccc1-c1ccc2c(c1)c(CC=O)cn2CC1CC1 [9F8/A119059]	> 30
CCCCCCn1cc(CC=O)c2cc(-c3ccc(F)c(Cl)c3)ccc21 [9F18/A119017]	7
CCCCCCCCn1cc(CC=O)c2cc(-c3cccc(OCC)c3)ccc21 [9F20/A119046]	2
Cc1ccc(-c2ccc3c(c2)c(CC=O)cn3Cc2cccc(C(F)(F)F)c2)cc1 [9H4/A119034]	7
O=CCc1cn(Cc2ccccc2)c2ccc(-c3cc(C(F)(F)F)cc(C(F)(F)F)c3)cc12 [9H6/A119000]	18
CCCCCCn1cc(CC=O)c2cc(-c3cccc(OCC)c3)ccc21 [9H10/A119022]	7
O=CCc1cn(CC2CC2)c2ccc(-c3cc(C(F)(F)F)cc(C(F)(F)F)c3)cc12 [9H12/A119056]	20

Molecule	IC50 [µM]
O=CCc1cn(Cc2cccc(C(F)(F)F)c2)c2ccc(-c3ccc(F)c(Cl)c3)cc12 [9H14/A119033]	6
O=CCc1cn(CC2CC2)c2ccc(-c3ccc(F)c(Cl)c3)cc12 [9J8/A119057]	> 30
CCCCCCCCn1cc(CC=O)c2cc(-c3ccccc3OC)ccc21 [9J16/A119043]	5
CCCCCCCCn1cc(CC=O)c2cc(-c3cccc(F)c3)ccc21 [9J18/A119045]	3
CCCCCCn1cc(CC=O)c2cc(-c3cccc(C)c3)ccc21 [9J22/A119020]	7
CCCCCCn1cc(CC=O)c2cc(-c3ccc(C)cc3)ccc21 [9L4/A119018]	23
CCCCCCCCn1cc(CC=O)c2cc(-c3ccc(C)cc3)ccc21 [9L6/A119042]	9
CCCCCCCCn1cc(CC=O)c2cc(-c3ccc(F)c(Cl)c3)ccc21 [9L8/A119041]	1
O=CCc1cn(Cc2cccc(C(F)(F)F)c2)c2ccc(-c3cc(C(F)(F)F)cc(C(F)(F)F)c3)cc12 [9L10/A119032]	> 30
CCCCCCCCn1cc(CC=O)c2cc(-c3cc(C(F)(F)F)cc(C(F)(F)F)c3)ccc21 [9L22/A119040]	> 30
CC(C)(C)c1ccc(Cn2cc(CC=O)c3cc(-c4ccc(F)c(Cl)c4)ccc32)cc1 [9N6/A119025]	5
Cc1ccc(-c2ccc3c(c2)c(CC=O)cn3CC2CC2)cc1 [9N8/A119058]	> 30
O=CCc1cn(Cc2ccccc2)c2ccc(-c3ccc(F)c(Cl)c3)cc12 [9N10/A119001]	9
COc1ccccc1-c1ccc2c(c1)c(CC=O)cn2Cc1ccc2ccccc2c1 [9N12/A119075]	18
O=CCc1cn(Cc2ccc3ccccc3c2)c2ccc(-c3ccc(Oc4ccccc4)cc3)cc12 [9N14/A119079]	20
Cc1cccc(-c2ccc3c(c2)c(CC=O)cn3Cc2ccc3ccccc3c2)c1 [9N22/A119076]	20

Same assay, conditions: Table 2, pre-incubation of enzyme with inhibitor; read-out: IC50 pre-inc

Molecule	IC50 [µM]
CCCCCCCCn1cc(CC=O)c2cc(-c3cccc(F)c3)ccc21 [9J18/A119045]	< 0.3

Same assay, conditions: Table 3, pre-incubation with Icmt for 30 min at 37° C.; read-out: IC50 PI (converted)

Molecule	IC50 [µM]
Cc1cccc(-c2ccc3c(c2)c(CC(N)=O)cn3CC(C)C)c1 [(a1)/drawing 2]	17.7
Cc1cccc(-c2ccc3c(c2)c(CC(N)=O)cn3CC2CC2)c1 [(b1)/drawing 2]	9.5
CCCCCCn1cc(CC(N)=O)c2cc(-c3cccc(C)c3)ccc21 [(c1)/drawing 2]	1.7
Cc1cccc(-c2ccc3c(c2)c(CC(N)=O)cn3Cc2ccccc2)c1 [(e1)/drawing 2]	2.4
Cc1cccc(-c2ccc3c(c2)c(CC(N)=O)cn3Cc2cccc(C(F)(F)F)c2)c1 [(g1)/drawing 2]	0.71

Same assay, conditions: standard in vitro methylation assay; read-out: Km as Icmt substrate

Molecule	Km [µM]
biotin-S-farnesyl-L-cysteine [BFC, reference compound]	2.1 ± 0.4
